Results taken from patent US20030144346A1, “Methods and compositions for regulation of 5-alpha reductase activity” (priority 1997, published 2003).
Like-named read-outs stand apart in the source and are kept apart here. Values belong to the compound of their own block, whether it stands above or below them.

Key:
[1] = target: T1, type 2 human 5α-reductase (HRED2) (Homo sapiens, UniProt P31213); assay: Cell free assay of 5α-reductase, microsomes of rat 1A cells expressing type 2 isoenzyme (HRED2); type: biochemical; set-up: expressed in transfected cells; host or cells: rat 1A cells infected with pMV7 retrovirus; microsomes;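 further: labeled testosterone and its product dihydrotestosterone measured in microsomal reaction extracts via thin layer chromatography plus radioanalytic scanning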
T1 sequence (P31213 1-254): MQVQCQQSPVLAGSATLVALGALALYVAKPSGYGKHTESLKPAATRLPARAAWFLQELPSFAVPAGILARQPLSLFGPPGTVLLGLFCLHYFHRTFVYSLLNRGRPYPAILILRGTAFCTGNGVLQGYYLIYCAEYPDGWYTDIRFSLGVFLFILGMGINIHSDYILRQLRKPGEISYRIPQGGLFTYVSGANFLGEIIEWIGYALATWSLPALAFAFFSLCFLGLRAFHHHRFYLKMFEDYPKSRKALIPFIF

[2] = target: T2, type 1 human 5α-reductase (HRED1) (Homo sapiens, UniProt P18405); assay: Cell free assay of 5α-reductase, microsomes of rat 1A cells expressing type 1 isoenzyme (HRED1); type: biochemical; set-up: expressed in transfected cells; host or cells: rat 1A cells infected with pMV7 retrovirus; microsomes;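 further: microsomes from rat 1A cells expressing human type 1 5α-reductase, conversion of radiolabeled testosterone to dihydrotestosterone quantified by thin layer chromatography with radioanalytic scanning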
T2 sequence (P18405 1-259): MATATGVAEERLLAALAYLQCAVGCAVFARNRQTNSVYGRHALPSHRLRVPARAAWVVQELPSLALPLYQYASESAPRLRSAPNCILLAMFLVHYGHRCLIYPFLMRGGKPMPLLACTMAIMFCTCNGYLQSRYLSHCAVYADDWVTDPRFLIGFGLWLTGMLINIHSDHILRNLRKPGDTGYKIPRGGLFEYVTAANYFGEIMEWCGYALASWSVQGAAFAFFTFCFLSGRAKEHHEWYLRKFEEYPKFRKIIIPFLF

[3] = 100 uM, cell free assay, Table 2, read-out: HRED2 % Inhibition @ 100 uM
[4] = 100 uM, cell free assay, Table 2, read-out: HRED1 % Inhibition @ 100 uM
[5] = cell free assay, Table 2 catechols, read-out: HRED1 IC50
[6] = 100 uM, cell free assay, Table 3, read-out: HRED2 % Inhibition @ 100 uM
[7] = 100 uM, cell free assay, Table 3, read-out: HRED1 % Inhibition @ 100 uM
[8] = cell free assay, Table 3 curcumin and related compounds, read-out: HRED1 IC50
[9] = 100 uM, cell free assay, Table 1
[10] = cell free assay, Table 1 flavanoids, read-out: HRED2 IC50
[11] = cell free assay, Table 1 flavanoids, read-out: HRED1 IC50
[12] = 100 μM, cell free assay, Table 4, read-out: HRED2 % Inhibition @ 100 μM
[13] = cell free assay, Table 4 quinones, read-out: HRED2 IC50
[14] = 100 μM, cell free assay, Table 4, read-out: HRED1 % Inhibition @ 100 μM
[15] = cell free assay, Table 4 quinones, read-out: HRED1 IC50
[16] = 100 μM, cell free assay, Table 4
[17] = cell free assay, Table 2 catechols, read-out: HRED2 IC50
[18] = 100 uM, cell free assay, Table 2
[19] = read-out: IC50, type 2 isoenzyme
[20] = cell-free assay, read-out: IC50, type 1 isoenzyme
[21] = 100 uM, cell free assay, Table 3

inhibition at 100 µM [1, 3]: 47% | inhibition at 100 µM [2, 4]: 85% | IC50 [2, 5]: 48 µM
SMILES: O=C1C=CC(=C(c2ccc(O)c(O)c2)c2ccccc2S(=O)(=O)O)C=C1O (mixture of isomers) [Pyrocatechol Violet]

inhibition at 100 µM [1, 6]: -60% | IC50 ([1]; read-out: HRED2 IC50): > 100 µM | inhibition at 100 µM [2, 7]: 10% | IC50 [2, 8]: > 100 µM
SMILES: COc1cc(C=CC=O)ccc1O [4-hydroxy-3-methoxycinnamaldehyde]

SMILES: O=c1cc(-c2ccccc2)oc2c1ccc1ccccc12 [Alpha-napthoflavone]
HRED2 % Inhibition @ 100 uM [1, 9]: (−13) % | IC50 [1, 10]: > 100 µM | HRED1 % Inhibition @ 100 uM [2, 9]: 6% | IC50 [2, 11]: > 100 µM

inhibition at 100 µM [1, 12]: 22% | IC50 [1, 13]: > 100 µM | inhibition at 100 µM [2, 14]: 27% | IC50 [2, 15]: > 100 µM
SMILES: O=C1c2ccc(O)cc2C(=O)c2ccc(O)cc21 [Anthraflavic Acid]

SMILES: O=C1c2ccccc2C(=O)c2ccccc21 [Anthraquinone]
IC50 [1]: > 100 µM | inhibition at 100 µM ([1]; read-out: HRED2 % Inhibition @ 100 μM): 9% | IC50 ([1]; read-out: HRED2 IC50, cell free assay, Table 4 quinones): > 100 µM | IC50 [2]: > 100 µM | inhibition at 100 µM ([2]; read-out: HRED1 % Inhibition @ 100 μM): 6% | IC50 ([2]; read-out: HRED1 IC50, cell free assay, Table 4 quinones): > 100 µM

HRED2 % Inhibition @ 100 μM [1, 16]: 13% | inhibition at 100 µM [1, 12]: 13% | IC50 [1, 13]: > 100 µM | HRED1 % Inhibition @ 100 μM [2, 16]: 67% | inhibition at 100 µM [2, 14]: 67% | IC50 [2, 15]: 40 µM
SMILES: O=C1c2cccc(O)c2C(=O)c2cccc(O)c21 [Anthrarufin]

SMILES: O=c1cc(-c2ccccc2)oc2ccc3ccccc3c12 [Beta-napthoflavone]
HRED2 % Inhibition @ 100 uM [1, 9]: 4% | IC50 [1, 10]: > 100 µM | HRED1 % Inhibition @ 100 uM [2, 9]: 3% | IC50 [2, 11]: > 100 µM

inhibition at 100 µM [1, 3]: 58% | IC50 [1, 17]: 84 µM | inhibition at 100 µM [2, 4]: 98% | IC50 [2, 5]: 7 µM
SMILES: O=c1c(Br)cc2c(-c3ccccc3S(=O)(=O)O)c3cc(Br)c(O)c(O)c3oc-2c1O [Bromopyrogallol Red]

SMILES: COc1cc(CNC(=O)CCCC/C=C/C(C)C)ccc1O [Capsaicin]
IC50 [1]: > 100 µM | inhibition at 100 µM [1, 6]: 8% | IC50 ([1]; read-out: HRED2 IC50): > 100 µM | IC50 [2]: > 100 µM | inhibition at 100 µM [2, 7]: 0% | IC50 [2, 8]: > 100 µM

IC50 [1, 10]: > 100 µM | IC50 [2, 11]: > 100 µM
SMILES: O=c1cc(-c2ccccc2)oc2cc(O)cc(O)c12 [Chrysin]

SMILES: OC1c2ccccc2-c2ccccc2C1O (stereo not drawn) [Cnc]
HRED2 % Inhibition @ 100 uM [1, 18]: (−75) % | IC50 [1, 17]: > 100 µM | HRED1 % Inhibition @ 100 uM [2, 18]: 42% | IC50 [2, 5]: > 100 µM

SMILES: COC1=C(OC)C(=O)C(C/C=C(\C)CC/C=C(\C)CC/C=C(\C)CC/C=C(\C)CC/C=C(\C)CC/C=C(\C)CC/C=C(\C)CC/C=C(\C)CC/C=C(\C)CCC=C(C)C)=C(C)C1=O [Coenzyme q]
HRED2 % Inhibition @ 100 μM [1, 16]: 81% | IC50 [1, 13]: 22 µM | inhibitory activity against type 2 isoenzyme, in words ([1]; cell-free assay): potent cell-free inhibitors | HRED1 % Inhibition @ 100 μM [2, 16]: 77% | IC50 [2, 15]: 12 µM | inhibitory activity against type 1 isoenzyme, in words ([2]; cell-free assay): potent cell-free inhibitors

IC50 [1, 19]: > 100 µM | IC50 [2, 8]: > 100 µM | IC50 [2, 20]: > 100 µM
SMILES: COc1cc(/C=C/CO)ccc1O [Coniferol]

IC50 ([1]; cell free assay, Table 6 fatty acids, read-out: HRED2 IC50): > 100 µM | IC50 ([2]; cell free assay, Table 6 fatty acids, read-out: HRED1 IC50): 7 µM
SMILES: CC(/C=C/C=C(\C)C(=O)O)=C\C=C\C=C(C)\C=C\C=C(/C)C(=O)O [Crocetin]

HRED2 % Inhibition @ 100 uM [1, 21]: 42% | IC50 ([1]; cell free assay, Table 3 curcumin and related compounds, read-out: HRED2 IC50): > 100 µM | HRED1 % Inhibition @ 100 uM [2, 21]: 23% | IC50 [2, 8]: > 100 µM
SMILES: COc1cc(CCC(=O)CC(=O)CCc2ccc(O)cc2)ccc1O [Demethoxytetrahydrocurcumin]

inhibition at 100 µM [1, 3]: 9% | IC50 [1, 17]: > 100 µM | inhibition at 100 µM [2, 4]: 7% | IC50 [2, 5]: > 100 µM
SMILES: O=c1oc2c(O)c(O)cc3c(=O)oc4c(O)c(O)cc1c4c23 [Ellagic Acid]

SMILES: C=CCc1ccc(O)c(OC)c1 [Eugenol]
inhibition at 100 µM ([1]; read-out: HRED2 % Inhibition @ 100 uM): 50% | IC50 [1, 19]: > 100 µM | IC50 [2, 8]: > 100 µM | IC50 [2, 20]: > 100 µM | inhibition at 100 µM ([2]; read-out: HRED1 % Inhibition @ 100 uM): 0%

HRED2 % Inhibition @ 100 uM [1, 18]: 13% | IC50 [1, 17]: > 100 µM | HRED1 % Inhibition @ 100 uM [2, 18]: 7% | IC50 [2, 5]: > 100 µM
SMILES: O=c1ccc2cc(O)c(O)cc2o1 [Exculetin]
